US9517265B2, “Methods for the prevention and/or treatment of memory impairment” (The Governing Council of the University of Toronto, priority 2010, dated 2016)
“Also recorded” adds a separate entry of the source. Read-outs that look alike come from different tables or passages of the source.

How the values were obtained:
[1] = in vivo; cited from earlier work
[2] = test system: postsynaptic GABAARs; assay: Whole-cell currents evoked by exogenous GABA (10 μM) in cultured hippocampal neurons; assay type: cell-based, mice
[3] = biological target: T1, α5GABAARs (Mus musculus, UniProt P22723+Q8BHJ7); assay: Tonic inhibitory current, whole cell voltage-clamp in cultured hippocampal neurons; assay type: cell-based, mice; parameters: endogenous in cells; host or cells: primary embryonic mouse hippocampal neurons, alone or co-cultured with cortical microglia; settings: for effect on the tonic current (in words): cultured hippocampal neurons; for amplitude of the tonic current: TNF-α 100 ng/ml, n=10, IL-6 10 ng/ml, n=5
[4] = biological target: T2, α5GABAARs (Mus musculus, UniProt P22723+P63080+Q8BHJ7); settings: cited from earlier work
T2 construct: host or cells: neurons (mIPSCs and tonic current recorded); preparation not described in this paragraph

[5] = test system: synaptic GABAARs; assay: Miniature inhibitory postsynaptic currents (mIPSCs) in cultured hippocampal neurons; assay type: cell-based, mice
[6] = rats; cited from earlier work
[7] = biological target: T1, α5GABAARs; settings: WT mice, etomidate or etomidate plus L-655,708 30 min prior to training; cited from earlier work
[8] = biological target: α5GABAA receptors (Mus musculus, UniProt P22723+Q8BHJ7); settings: for effect of the anesthetic on recognition memory, wild-type mice (in words): 24 h after anesthesia
[9] = biological target: T3, α5GABAA receptors (Homo sapiens, UniProt P18507+P31644); parameters: host or cells: human volunteers (brain in vivo); settings: human volunteers, given before ethanol; cited from earlier work
T3 sequence (P31644 32-462): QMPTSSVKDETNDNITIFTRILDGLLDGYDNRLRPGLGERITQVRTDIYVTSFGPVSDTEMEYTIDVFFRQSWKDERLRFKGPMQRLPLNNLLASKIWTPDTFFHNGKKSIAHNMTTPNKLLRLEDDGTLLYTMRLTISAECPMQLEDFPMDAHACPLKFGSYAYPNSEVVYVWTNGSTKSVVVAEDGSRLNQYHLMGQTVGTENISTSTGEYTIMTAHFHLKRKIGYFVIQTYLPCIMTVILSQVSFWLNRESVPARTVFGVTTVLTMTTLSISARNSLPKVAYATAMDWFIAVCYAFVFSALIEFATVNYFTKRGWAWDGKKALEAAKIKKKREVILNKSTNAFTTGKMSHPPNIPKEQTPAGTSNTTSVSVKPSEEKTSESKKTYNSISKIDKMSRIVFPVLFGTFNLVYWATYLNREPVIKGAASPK
T3 sequence (P28472 26-473 partner): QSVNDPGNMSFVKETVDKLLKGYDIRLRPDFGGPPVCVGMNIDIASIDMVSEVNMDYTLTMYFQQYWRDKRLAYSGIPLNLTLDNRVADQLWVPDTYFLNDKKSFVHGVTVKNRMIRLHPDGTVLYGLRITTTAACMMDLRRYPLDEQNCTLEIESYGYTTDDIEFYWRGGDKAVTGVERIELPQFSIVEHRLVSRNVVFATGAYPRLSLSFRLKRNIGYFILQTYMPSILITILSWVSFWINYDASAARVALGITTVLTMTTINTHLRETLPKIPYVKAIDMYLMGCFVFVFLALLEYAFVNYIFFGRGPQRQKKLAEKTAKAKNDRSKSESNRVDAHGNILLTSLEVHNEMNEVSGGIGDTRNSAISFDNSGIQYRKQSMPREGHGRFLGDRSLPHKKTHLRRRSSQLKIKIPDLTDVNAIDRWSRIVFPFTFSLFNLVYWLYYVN
T3 sequence (P18507 40-467 limits assumed): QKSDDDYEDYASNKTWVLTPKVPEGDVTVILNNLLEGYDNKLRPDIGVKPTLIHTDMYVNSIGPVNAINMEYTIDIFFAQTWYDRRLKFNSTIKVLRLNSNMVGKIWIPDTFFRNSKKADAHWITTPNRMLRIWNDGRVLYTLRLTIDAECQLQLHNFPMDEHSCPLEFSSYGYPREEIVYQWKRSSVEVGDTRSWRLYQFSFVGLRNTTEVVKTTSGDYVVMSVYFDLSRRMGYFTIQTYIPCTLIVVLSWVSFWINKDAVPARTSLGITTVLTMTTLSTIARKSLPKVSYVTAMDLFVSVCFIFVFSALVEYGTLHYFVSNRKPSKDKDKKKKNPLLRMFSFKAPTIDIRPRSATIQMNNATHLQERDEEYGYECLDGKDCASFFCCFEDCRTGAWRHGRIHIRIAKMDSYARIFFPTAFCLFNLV

[10] = test system: α5GABAARs; assay: Tonic current in hippocampal neuron-microglia co-culture; assay type: cell-based, mice; settings: LPS 100 ng ml^−1 overnight; IL-1ra 250 ng ml^−1
[11] = pretreatment before tibial osteotomy; cited from earlier work
[12] = biological target: T1, α5GABAARs; assay: Long-term potentiation of field postsynaptic potentials in hippocampal slices; assay type: cell-based, mice; parameters: endogenous in cells; host or cells: primary embryonic mouse hippocampal neurons, alone or co-cultured with cortical microglia
Procedure: IL-1β could influence any of several molecular processes that regulate synaptic plasticity^50. The key question is whether α5GABAARs underlie the predominant effect of IL-1β on plasticity. Our working hypothesis is that IL-1β acts via α5GABAARs to inhibit LTP. […] After 3 hours, the mice were sacrificed and the hippocampi harvested. Extracellular field recordings were obtained with a recording electrode placed in the stratum radiatum of the CA1 subfield.
The long-term potentiation (LTP) of evoked field postsynaptic potentials (fPSPs) was studied using previously described methods^29. […] Baseline stimulation frequency was 0.05 Hz. LTP was induced in the slices with theta burst stimulation (TBS), which consisted of 10 stimulus trains at 5 Hz, with each train consisting of 4 pulses at 100 Hz. The fPSPs were monitored for 10 min before TBS and for 60 min after TBS.

Chain of α5GABAA receptors (Mus musculus, UniProt P22723+Q8BHJ7) (Q8BHJ7 32-463 limits assumed): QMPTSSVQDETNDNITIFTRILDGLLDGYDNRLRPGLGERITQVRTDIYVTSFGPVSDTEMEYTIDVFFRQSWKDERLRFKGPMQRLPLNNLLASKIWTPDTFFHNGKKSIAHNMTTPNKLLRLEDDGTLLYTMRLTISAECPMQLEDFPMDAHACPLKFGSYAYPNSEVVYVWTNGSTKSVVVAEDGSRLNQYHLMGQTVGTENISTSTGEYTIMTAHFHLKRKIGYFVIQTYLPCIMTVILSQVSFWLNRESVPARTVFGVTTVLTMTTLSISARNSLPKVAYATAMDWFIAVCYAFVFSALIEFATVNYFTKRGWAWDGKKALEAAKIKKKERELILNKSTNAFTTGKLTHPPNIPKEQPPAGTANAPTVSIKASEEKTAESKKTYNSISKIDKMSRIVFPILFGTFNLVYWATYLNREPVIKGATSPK
Chain of α5GABAA receptors (Mus musculus, UniProt P22723+Q8BHJ7) (P63080 26-473 partner): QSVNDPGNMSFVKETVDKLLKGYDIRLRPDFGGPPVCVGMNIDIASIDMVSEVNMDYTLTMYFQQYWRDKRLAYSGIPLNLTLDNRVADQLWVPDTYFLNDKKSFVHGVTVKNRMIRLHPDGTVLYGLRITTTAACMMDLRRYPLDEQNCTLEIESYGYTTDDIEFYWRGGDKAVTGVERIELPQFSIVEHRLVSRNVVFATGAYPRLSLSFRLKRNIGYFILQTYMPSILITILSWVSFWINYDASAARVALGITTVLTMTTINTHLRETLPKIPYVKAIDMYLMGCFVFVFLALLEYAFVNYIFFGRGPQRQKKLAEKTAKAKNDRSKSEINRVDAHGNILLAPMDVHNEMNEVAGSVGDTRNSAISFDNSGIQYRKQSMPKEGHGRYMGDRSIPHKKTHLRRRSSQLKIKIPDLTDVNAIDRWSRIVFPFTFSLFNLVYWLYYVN
Chain of α5GABAA receptors (Mus musculus, UniProt P22723+Q8BHJ7) (P22723 39-474): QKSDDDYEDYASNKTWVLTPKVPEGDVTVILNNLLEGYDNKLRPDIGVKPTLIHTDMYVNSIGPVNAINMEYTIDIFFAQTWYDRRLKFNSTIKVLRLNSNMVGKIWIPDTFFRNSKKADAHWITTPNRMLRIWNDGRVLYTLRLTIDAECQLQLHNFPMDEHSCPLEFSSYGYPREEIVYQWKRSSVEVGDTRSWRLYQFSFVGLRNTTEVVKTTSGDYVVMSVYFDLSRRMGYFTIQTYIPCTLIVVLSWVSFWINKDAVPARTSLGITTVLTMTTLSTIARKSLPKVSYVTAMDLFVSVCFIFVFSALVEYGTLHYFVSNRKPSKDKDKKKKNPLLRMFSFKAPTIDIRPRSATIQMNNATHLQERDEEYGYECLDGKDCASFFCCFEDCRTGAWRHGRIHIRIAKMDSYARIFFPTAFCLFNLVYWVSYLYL
T1 sequence (Q8BHJ7 32-463 limits assumed): as the sequence (Q8BHJ7 32-463 limits assumed) above
T1 sequence (P63080 26-473 partner): as the sequence (P63080 26-473 partner) above
T1 sequence (P22723 39-474): as the sequence (P22723 39-474) above
T2 sequence (Q8BHJ7 32-463 limits assumed): as the sequence (Q8BHJ7 32-463 limits assumed) above
T2 sequence (P63080 26-473): as the sequence (P63080 26-473 partner) above
T2 sequence (P22723 39-474): as the sequence (P22723 39-474) above

CNC(=O)c1cc2c(cn1)[nH]c1ccccc12 [FG 7142]
convulsant / anxiogenic properties (in words) [1]: have epileptogenic and anxiogenic properties

O=c1cc(N2CCOCC2)oc2c(-c3ccccc3)cccc12 [LY294,002]
effect on IL-1β inhibition of the GABA-evoked peak current (in words) [2]: completely prevented IL-1β-dependent inhibition of the GABA-evoked peak current; also recorded: alone had no effect on the GABA-evoked peak responses
effect on the tonic current (in words) [3]: had no effect on the IL-1β-induced increase in tonic current

Cc1ncc2n1-c1ccc(Cl)cc1C(c1ccccc1F)=NC2 [Midazolam, midazolam]
increase in charge transfer for the tonic current relative to that for mIPSCs [4]: 7-21 fold

CCc1nc(-c2ccc(OC)cc2)[nH]c1-c1ccncc1 [SB202,474]
effect on the tonic current (in words) [3]: had no effect on the tonic current

C[S+]([O-])c1ccc(-c2nc(-c3ccncc3)c(-c3ccc(F)cc3)[nH]2)cc1 (stereo not shown) [SB203,580]
effect on mIPSCs (in words) [5]: did not modify IL-1β inhibition of miniature IPSCs
effect on IL-1β inhibition of the GABA-evoked peak current (in words) [2]: had no effect on inhibition of the GABA-evoked peak current by IL-1β
tonic current density ([3]; IL-1β 20 ng ml^−1 20 min with or without SB203,580 20 μM 30 min): 1.0±0.1 pA pF^−1
effect on the tonic current (in words) [3]: completely blocked the IL-1β-induced increase in the tonic current

FC(F)OC(F)C(F)(F)F (stereo not shown) [desflurane]
threshold concentration that impaired memory performance during fear conditioning [6]: 0.44%

CCOC(=O)c1cncn1[C@H](C)c1ccccc1 [etomidate]
contextual fear memory, freezing score (in words) [7]: reduced the freezing score
effect on the tonic current (in words) [3]: selectively potentiate the tonic current; also recorded: increased the amplitude of the tonic current; also recorded: produced a supra-additive increase in the tonic current

COc1ccc(-c2ccc(=N)n(CCCC(=O)O)n2)cc1 [gabazine]
effect on the tonic current (in words) [3]: selectively inhibits the synaptic but not tonic current

FC(F)(F)C(Cl)Br (stereo not shown) [halothane]
threshold concentration that impaired memory performance during fear conditioning [6]: 0.3%

CC(C)c1cccc(C(C)C)c1O [propofol]
increase in charge transfer for the tonic current relative to that for mIPSCs [4]: 6-33 fold

FCOC(C(F)(F)F)C(F)(F)F [sevoflurane]
effect of the anesthetic on recognition memory, wild-type mice (in words) [8]: did not learn the task
effect of the anesthetic on recognition memory, wild-type mice (in words) ([8]; listed as Sevoflurane): caused memory deficits 24 h after anesthesia
exploratory behavior during the training phase ([8]; 24 h after sevoflurane): 23.45 ± 3.88 s
time with familiar object ([8]; 24 h after sevoflurane): 13.13±1.95
time with novel object ([8]; 24 h after sevoflurane): 15.41±2.25
discrimination ratio, short-term memory ([8]; 24 h after sevoflurane 2.3% 1 h): 0.53±0.03
threshold concentration that impaired memory performance during fear conditioning [6]: 0.3%

Cc1cc(-c2nnc3c4ccccc4c(OCc4cn(C)nn4)nn23)no1 [α5IA]
ethanol-induced memory impairment (in words) [9]: reversed memory impairment for word-list learning after the ingestion of ethanol; also recorded: attenuated ethanol-induced impairment of word recall

IL-1ra: naturally occurring IL-1 receptor antagonist that blocks the type 1 IL-1 receptor
effect on the tonic current (in words) [10]: fully reversed the enhancement of the tonic current
effect on mIPSCs (in words) [5]: this effect could be blocked by IL-1ra
effect on IL-1β inhibition of the GABA-evoked peak current (in words) [2]: this effect could be blocked by IL-1ra
postsurgical memory deficits (in words) [11]: no memory deficits were detected
effect on the tonic current (in words) [3]: completely blocked by IL-1ra; also recorded: alone had no effect on the tonic or synaptic currents; also recorded: completely blocked both the increase in tonic current and the reduction of synaptic current by IL-1β
effect on LTP (in words) [12]: This inhibition of LTP was abolished by incubating the slices with IL-1ra
LTP, slope of fPSPs ([12]; slices from LPS-treated WT mice incubated with IL-1ra 100 ng ml^−1 for 1 h, n=10): 126.2%±3.9%

IL-6: pro-inflammatory cytokine
amplitude of the tonic current [3]: 96.3%±6.0%
effect on the tonic current (in words) [3]: did not modify the tonic conductance in hippocampal neurons

TNF-α
amplitude of the tonic current [3]: 104.1%±12.1%
effect on the tonic current (in words) [3]: did not modify the tonic conductance in hippocampal neurons
